This is an account of results in patent US20120302573A1, “METHODS OF INHIBITING PRO MATRIX METALLOPROTEINASE ACTIVATION” (priority 2011, published 2012).

For test [1], the target named is T1, proMMP9(67-444;ΔFnII) (SEQ ID NO:5) (Homo sapiens, UniProt P14780, DEL216-390).
T1 construct: amino acid pairs including: 29-215/391-444, 67-215/391-444, and 20-215/391-445, respectively; start methionine (N); made in house; host or cells: E. coli BL21(DE3) RIL
T1 sequence (P14780 with tags, fused parts or gaps DEL216-390): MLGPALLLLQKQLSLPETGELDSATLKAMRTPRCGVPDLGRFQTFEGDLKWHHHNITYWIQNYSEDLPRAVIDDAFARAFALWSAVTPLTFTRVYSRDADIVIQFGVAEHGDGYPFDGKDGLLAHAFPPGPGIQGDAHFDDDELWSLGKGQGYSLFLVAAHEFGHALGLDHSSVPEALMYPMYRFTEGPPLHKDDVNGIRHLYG
Kind of test: ThermoFluor binding assay with proMMP9(67-444;ΔFnII). On the procedure: (§1) The experiments were carried out using instruments available from Johnson & Johnson Pharmaceutical Research & Development, LLC. TF dye used in all experiments was […] (1,8-ANS) (Invitrogen: A-47).
(§2) Columns 12 and 24 were used as DMSO reference and contained no compound. […] Following compound dispense, protein and dye solutions were added to achieve the final assay volume of 3 μL.
(§3) Assay plates were robotically loaded onto a thermostatically controlled PCR-type thermal block and then heated from 40 to 90° C. at a ramp-rate of 1° C./min for all experiments. Fluorescence was measured by continuous illumination with UV light (Hamamatsu LC6) supplied via fiber optics and filtered through a band-pass filter (380-400 nm; >6 OD cutoff). Fluorescence emission of the entire 384-well plate was detected by measuring light intensity using a CCD camera (Sensys, Roper Scientific) filtered to detect 500±25 nm, resulting in simultaneous and independent readings of all 384 wells.
(§4) Thermodynamic parameters necessary for fitting compound binding for each proMMP were estimated by differential scanning calorimetry (DSC) and from ThermoFluor® data. The heat capacity of unfolding for each protein was estimated from the molecular weight and from ThermoFluor® dosing data.
The protein sample preparations had to include a desalting buffer exchange step via a PD-10 gravity column (GE Healthcare).

Test [2] concerns the target T2, full-length proMMP9(1-707) activation by catalytic MMP3 (Homo sapiens, UniProt P14780, R574P). Kind of test: proMMP9/MMP3 P126 Activation Assay. Format: biochemical. More on the design: made in house; host or cells: E. coli (MMP3). To be noted: proMMP9 from HEK293 cells.
Method: The assay buffer employed was 50 mM Hepes, pH 7.5, 10 mM CaCl2, 0.05% Brij-35. DMSO was included at a final concentration of 2%, arising from the test compound addition. […] The reaction volume was 50 μL. […] Initial velocities were plotted by use of a four-parameter logistics equation (GraphPad Prism® software) for determination of IC50.
Test [3] has as its target T3, proMMP9(20-445;ΔFnII) (SEQ ID NO:6) (Homo sapiens, UniProt P14780, DEL216-390).
T3 construct: amino acid pairs including: 29-215/391-444, 67-215/391-444, and 20-215/391-445, respectively; start methionine (N); made in house; host or cells: E. coli BL21(DE3) RIL
T3 sequence (P14780 with tags, fused parts or gaps DEL216-390): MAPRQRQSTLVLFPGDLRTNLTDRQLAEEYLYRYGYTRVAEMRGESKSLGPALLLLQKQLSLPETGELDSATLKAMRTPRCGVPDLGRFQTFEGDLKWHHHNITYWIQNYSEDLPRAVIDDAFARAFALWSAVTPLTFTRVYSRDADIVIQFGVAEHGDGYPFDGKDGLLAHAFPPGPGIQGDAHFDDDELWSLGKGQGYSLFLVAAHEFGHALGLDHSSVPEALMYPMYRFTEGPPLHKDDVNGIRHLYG
The test can be described thus: ThermoFluor binding assay with proMMP9(20-445;ΔFnII). On the procedure:
as §1, §2, §3, §4
The protein sample preparations included a desalting buffer exchange step via a PD-10 gravity column (GE Healthcare).

Test [4] concerns the target T2, full-length proMMP9(1-707) activation by catalytic MMP3. The test can be described thus: ProMMP9/MMP3 DQ Gelatin Activation Assay.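 Also: readout is fluorescence of quenched fluorescein gelatin cut by activated MMP9, 30 min activation at 37 °C, inhibition relative to DMSO-only controls with EDTA as blank.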 More on the design: made in house; host or cells: COS-1 (proMMP9); E. coli (MMP3). It counts as biochemical. To be noted: proMMP9 from COS-1 cells; read-out: ProMMP9/MMP3 DQ gel, IC50.
Method: Compounds were assessed for inhibition of proMMP9 activation by catalytic MMP3 using a quenched fluorescein gelatin substrate (DQ gelatin, Invitrogen D12054) that fluoresces upon cleavage by activated MMP9. The assay buffer employed was 50 mM Hepes, pH 7.5, 10 mM CaCl2, 0.05% Brij-35. DMSO was included at a final concentration of 0.2%, arising from the test compound addition. […] Test compounds in DMSO were diluted 250-fold in assay buffer at 4× the final concentration. The reaction volume was 12 μL, and all reactions were conducted in triplicate. […] The plate was sealed and incubated for 30 min at 37° C. […] Immediately following the 30 min incubation, 4 μL of 40 μg/ml DQ gelatin substrate was added (freshly diluted in assay buffer), and incubated for 10 min at room temperature. […] Reactivity of residual MMP3 towards DQ gelatin was minimal under these conditions. Percent inhibition of test compounds were determined from suitable positive (DMSO only in assay buffer) and negative (EDTA added prior to reaction initiation) controls. Plots of % inhibition vs. test compound concentration were fit to a four-parameter logistics equation (GraphPad Prism® software) for determination of IC50.
In test [5] the target is T4, proMMP13(1-268) (SEQ ID NO:7) (Homo sapiens, UniProt P45452).
T4 construct: 6x-histidine tag (C); made in house; host or cells: HEK293
The test can be described thus: ThermoFluor binding assay with proMMP13(1-268). How it is done:
The ThermoFluor® (TF) assay is a 384-well plate-based binding assay that measures thermal stability of proteins (Biomol Screen 2001, 6, 429-40; Biochemistry 2005, 44, 5258-66). The experiments were carried out using instruments available from Johnson & Johnson Pharmaceutical Research & Development, LLC. TF dye used in all experiments was […] (1,8-ANS) (Invitrogen: A-47).
Compounds were arranged in a pre-dispensed plate (Greiner Bio-one: 781280), wherein compounds were serially diluted in 100% DMSO across 11 columns within a series. Columns 12 and 24 were used as DMSO reference and contained no compound. For multiple compound concentration-response experiments, the compound aliquots ([…]) were robotically predispensed directly into black 384-well polypropylene PCR microplates (Abgene: TF-0384/k) using a Cartesian Hummingbird liquid handler (DigiLab, Holliston, Mass.). Following compound dispense, protein and dye solutions were added to achieve the final assay volume of 3 μL. The assay solutions were overlayed with 1 μL of silicone oil (Fluka, type DC 200: 85411) to prevent evaporation.
as §3, with “wells. A single image with 20-sec exposure time was collected at each temperature, and the sum of the pixel intensity in a given area of the assay plate was recorded vs temperature and fit to standard equations to yield the Tm (J Biomol Screen 2001, 6, 429-40).” for “wells.”
as §4
The proMMP13(1-268) (SEQ ID NO:7) protein sample preparations included a desalting buffer exchange step via a PD-10 gravity column (GE Healthcare). The desalting buffer exchange was performed prior to diluting the protein to the final assay concentration of 3.5 μM. The concentration of proMMP13(1-268) (SEQ ID NO:7) was estimated spectrophotometrically based on a calculated extinction coefficient of ε280=37000 M^−1 cm^−1, a calculated molecular weight of 30.8 kDa, and calculated pI of 5.33. ThermoFluor® reference conditions were defined as follows: 100 μg/mL proMMP13(1-268) (SEQ ID NO:7), 25 μM 1,8-ANS, pH 7.0 Buffer (50 mM HEPES pH 7.0, 100 mM NaCl, 0.001% Tween-20, 2.5 mM MgCl2, 300 μM CaCl2). The thermodynamic parameters for proMMP13(1-268) (SEQ ID NO:7) are as follows: Tm (° C.)=67 (+/−0.1), ΔUH(Tm) (cal mol^−1)=107000(+/−5000), ΔUS(Tm) (cal mol^−1 K^−1)=318, ΔUCp (cal mol^−1 K^−1)=2600.

Counter-ions that a name gives are not always drawn. Some results are limits rather than exact numbers.

T2 sequence (P14780 20-707 R574P): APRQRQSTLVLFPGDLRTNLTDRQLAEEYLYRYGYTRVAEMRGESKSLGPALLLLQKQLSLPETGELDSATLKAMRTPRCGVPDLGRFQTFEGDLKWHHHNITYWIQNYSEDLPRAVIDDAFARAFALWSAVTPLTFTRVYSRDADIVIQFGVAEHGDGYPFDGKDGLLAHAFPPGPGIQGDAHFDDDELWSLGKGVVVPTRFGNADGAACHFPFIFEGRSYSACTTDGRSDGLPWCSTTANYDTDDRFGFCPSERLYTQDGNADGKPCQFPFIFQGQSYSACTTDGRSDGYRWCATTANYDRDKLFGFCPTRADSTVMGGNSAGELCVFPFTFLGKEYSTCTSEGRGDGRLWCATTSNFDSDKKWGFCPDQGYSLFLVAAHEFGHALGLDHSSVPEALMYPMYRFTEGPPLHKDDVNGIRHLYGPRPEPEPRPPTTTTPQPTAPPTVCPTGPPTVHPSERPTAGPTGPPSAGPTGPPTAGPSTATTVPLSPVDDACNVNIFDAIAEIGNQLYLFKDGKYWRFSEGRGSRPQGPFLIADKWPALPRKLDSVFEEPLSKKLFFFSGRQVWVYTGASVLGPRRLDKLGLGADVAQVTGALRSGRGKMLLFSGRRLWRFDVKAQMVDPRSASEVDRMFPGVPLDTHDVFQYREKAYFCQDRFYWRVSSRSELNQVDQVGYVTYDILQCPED

As to `Cc1nc(N)sc1-c1csc(Nc2ccccc2OC(C)C)n1` [Example 3, N^2-(2-Isopropoxy-phenyl)-4′-methyl-[4,5′]bithiazolyl-2,2′-diamine.TFA], the equilibrium dissociation constant (Kd) in test [1] is 1.15 µM; in test [3], 3.81 µM. Further, the IC50 in test [2] was 2 µM.
In the same order, the values of `CC(C)Oc1ccccc1Nc1nc(-c2cccnc2)cs1` [Example 15, (2-Isopropoxy-phenyl)-(4-pyridin-3-yl-thiazol-2-yl)-amine] are 43.3 µM, over 95 µM and 2.5 µM.
In the same order, the values of `COc1ccc(F)cc1Nc1nc(-c2sc(NC(C)=O)nc2C)c(Br)s1` [Example 18, N-[5-Bromo-2-(5-fluoro-2-methoxy-phenylamino)-4′-methyl-[4,5′]bithiazolyl-2′-yl]-acetamide.TFA] are 0.376 µM, 2.89 µM and 2.6 µM.
In the case of `COc1ccc(Br)cc1Nc1nc(-c2sc(N)nc2C)cs1` [Example 20, N^2-(5-Bromo-2-methoxy-phenyl)-4′-methyl-[4,5′]bithiazolyl-2,2′-diamine.TFA], the Kd in test [1] was 0.414 µM; in test [3], 2.15 µM. This compound returned an IC50 in test [2] of 3.3 µM.
For the compound `COc1ccc(Br)cc1Nc1nc(-c2sc(C)nc2C)cs1` [Example 27, (5-Bromo-2-methoxy-phenyl)-(2′,4′-dimethyl-[4,5′]bithiazolyl-2-yl)-amine.TFA], in test [2], the IC50 worked out at 3.1 µM. This compound gave a Kd in test [3] of 49.9 µM.
In the same order, the values of `COc1ccc(F)cc1Nc1nc(-c2ccc3c(c2)ncn3C)cs1` [Example 41, (5-Fluoro-2-methoxy-phenyl)-[4-(1-methyl-1H-benzoimidazol-5-yl)-thiazol-2-yl]-amine] are 1.9 µM and 1.94 µM.
Take `COc1ccccc1Nc1nc(-c2ccncc2)cs1` [Example 60, (2-Methoxy-phenyl)-(4-pyridin-4-yl-thiazol-2-yl)-amine]: the Kd in test [1] came to 11.3 µM; in test [5], 44.4 µM; in test [3], 16.8 µM. Also, the IC50 in test [4] was found to be 5.5 µM.
In the case of `COc1ccc(OC)c(Nc2nc(-c3sc(NC(C)=O)nc3C)cs2)c1` [Example 61, N-[2-(2,5-Dimethoxy-phenylamino)-4′-methyl-[4,5′]bithiazolyl-2′-yl]-acetamide], the Kd worked out at 1.06 µM in test [1], 21 µM in test [5] and 5.07 µM in test [3]. For the same compound, the IC50 in test [4] came to 1.6 µM.
For `CCc1ccccc1Nc1nc(-c2sc(NC(C)=O)nc2C)cs1` [Example 62, N-[2-(2-Ethyl-phenylamino)-4′-methyl-[4,5′]bithiazolyl-2′-yl]-acetamide], the Kd worked out at 2.46 µM in test [1], 47.2 µM in test [5] and 8.29 µM in test [3]. In test [4], the IC50 is 3.4 µM.
`COc1ccccc1Nc1nc(-c2sc(C)nc2C)cs1` [Example 64, (2′-4′-Dimethyl-[4,5′]bithiazolyl-2-yl)-(2-methoxy-phenyl)-amine]: the Kd was 45.3 µM in test [1], over 95 µM in test [5] and 47.5 µM in test [3]. For the same compound, in test [4], the IC50 turned out to be 2.1 µM.
Regarding `COc1ccc(OC)c(Nc2nc(-c3c[nH]c4ncccc34)cs2)c1` [Example 73, (2,5-Dimethoxy-phenyl)-[4-(1H-pyrrolo[2,3-b]pyridin-3-yl)-thiazol-2-yl]-amine], the Kd in test [1] amounted to 15.9 µM; in test [5], 18 µM; in test [3] it was 25.5 µM. Further, in test [4], the IC50 stood at 17.9 µM.
For the compound `CCOc1ccccc1Nc1nc(-c2cn3ccccc3n2)cs1` [Example 74, (2-Ethoxy-phenyl)-(4-imidazo[1,2-a]pyridin-2-yl-thiazol-2-yl)-amine], the Kd in test [1] is 66.1 µM; in test [5] it was over 95 µM; in test [3] it was 7.89 µM. The IC50 in test [4] came to 21.1 µM.
Take `COc1ccccc1Nc1nc(-c2cnc3cnccn23)cs1` [Example 75, (4-Imidazo[1,2-a]pyrazin-3-yl-thiazol-2-yl)-(2-methoxy-phenyl)-amine]: the values for the Kd in test [1], in test [5] and in test [3] were 10.1 µM, 28.9 µM and 17.9 µM, respectively. The IC50 in test [4] amounted to 17.9 µM.
In the case of `COc1ccccc1Nc1nc(-c2c[nH]c3ncccc23)cs1` [Example 76, (2-Methoxy-phenyl)-[4-(1H-pyrrolo[2,3-b]pyridin-3-yl)-thiazol-2-yl]-amine], the Kd stood at 10.8 µM in test [1], 57.1 µM in test [5] and 27 µM in test [3]. Besides, the IC50 in test [4] was found to be 16.3 µM.
As to `COc1ccc(F)cc1Nc1nc(-c2sc(C)nc2C)c(C)s1` [Example 77, N-(5-fluoro-2-methoxyphenyl)-2′,4′,5-trimethyl-[4,5′-bithiazol]-2-amine.HBr], the Kd was 20.6 µM in test [1] and over 77 µM in test [3]. This compound also had an IC50 in test [2] of 3.8 µM.
In the same order, the values of `COc1ccc(F)cc1Nc1nc(-c2sc(C3CCN(C)CC3)nc2C)cs1` [Example 78, N-(5-fluoro-2-methoxyphenyl)-4′-methyl-2′-(1-methylpiperidin-4-yl)-[4,5′-bithiazol]-2-amine.TFA] are 0.146 µM, 0.879 µM and 0.13 µM.
Regarding `COc1ccc(F)cc1Nc1nc(-c2ccc(N3CCN(C4CC4)CC3)nc2)cs1` [Example 79, 4-(6-(4-Cyclopropylpiperazin-1-yl)pyridin-3-yl)-N-(5-fluoro-2-methoxyphenyl)thiazol-2-amine.TFA], the Kd in test [1] is 3.93 µM; in test [3], 21.4 µM. Moreover, in test [2], the IC50 turned out to be 1 µM.
